{
  "source": "patent US20230381205A1",
  "about": "“COMPOSITIONS AND METHODS FOR TREATING NEURONAL DISORDERS WITH CANNABINOIDS” (INMED PHARMACEUTICALS INC., priority 2020, published 2023)",
  "key": {"[1]": {"tested_on": "differentiated SH-SY5Y human neuronal cells", "assay": "MTT assay: cytotoxicity of the substance alone (primary screen, no added insult)", "format": "cell-based", "procedure": "(§1) Cell Culture and Differentiation: The SH-SY5Y human neuronal cell line was derived from neuroblastoma established from a metastatic bone tumor (patient with neuroblastoma). The cells were maintained in DMEM:F12 culture medium supplemented with 10% FBS and 1% Antibiotic-Antimycotic penicillin/streptomycin (growth medium) at 37° C. in a humidified atmosphere of 5% CO2. To induce neuronal differentiation of SH-SY5Y cells, culture media was replaced by a growth medium containing Retinoic Acid (RA) for 4-5 days at 37° C. in a humidified atmosphere of 5% CO2.\n(§2) Compounds and Dosing Formulations: Selected cannabinoids: CBD, CBDA, CBC, CBG, CBGA, CBN, CBND and Δ^9-THC were procured from Cayman Chemicals and TRC. Ethanol (100%) was used as the solvent to prepare 1 and 10 mM stock solutions. Treatment concentrations for CBGA were prepared at 0.5 μM, 1.5 μM, 5 μM, 10 μM, 15 μM, 20 μM. Treatment concentrations for CBD, CBDA, CBC, CBN, CBND and Δ^9-THC were prepared at 0.5, 1.5, 5 and for CBG at 0.5 μM, 1.5 μM, 5 μM, 10 μM, 15 μM. Treatments were prepared directly in the control medium (DMEM:F12+5% FBS+1% Antibiotic-Antimycotic) by using appropriate stock solutions.\n(§3) Evaluation of Cytotoxicity and Neuroprotection: Evaluation of cannabinoids neuroprotection and cytotoxicity on differentiated SH-SY5Y human neuronal cells was carried out by MTT (3-(4,5-dimethylthiazol-2-yl)-2,5-diphenyltetrazolium bromide) assay. Initially, cannabinoid cytotoxicity and neuroprotection were evaluated in a primary screen assay without the presence of cytotoxicity inducing insult agents. […] The Retinoic Acid (RA) differentiated SH-SY5Y neuronal cells were seeded onto 96-well plates (10,000 cells/well) in DMEM:F12 complete medium. Cells were differentiated for 4-5 days in the presence of RA.\n(§4) MTT Assay: For the MTT assay, differentiated SH-SY5Y neuronal cells were treated with cannabinoids at various concentrations for 72 hrs in the presence of STSR at 75 nM, 100 nM, 150 nM and 200 nM or for 24 hrs in the presence of […] at 5 μM, respectively and processed to determine cytotoxicity. Briefly, 5 mg/mL of methylthiazolyldiphenyl-tetrazolium bromide (Sigma-Aldrich) stock solution was prepared in PBS. Following treatment of SH-SY5Y neuronal cells with cannabinoids for 72 hrs, the cells were incubated with 20 μL of MTT stock solution in 200 μL DMEM for 2 hrs at 37° C. Following subsequent washes with PBS, 200 μL of isopropanol was added to each well. The resulting change in color from dissolving formazan salt was immediately quantified using a spectrophotometer (BMG Labtech) at a wavelength of 570 nm. […] The results are illustrated in FIGS. 1-7."}, "[2]": {"tested_on": "differentiated SH-SY5Y human neuronal cells", "assay": "MTT assay: neuroprotection from Aβ1-42 induced cytotoxicity", "format": "cell-based", "conditions": "FIG. 7", "procedure": "as §1, §2, §3, §4"}, "BCL2": {"tested_on": "BCL2", "assay": "Western blot of phosphorylated BCL2 (anti-apoptotic marker)", "format": "cell-based, human", "conditions": "CBGA 5 μM and 10 μM on Aβ1-42 (5 μM) treated cells, FIG. 10", "procedure": "(§5) For Western blot analysis, control and the treated cells were harvested and lysed in cold lysis buffer (150 mM NaCl, 50 mM Tris-HCl, 1% Triton X-100, 0.1% SDS, 0.5% Sodium deoxycholate, and 1% protease-phosphatase inhibitor mixture). The supernatants were collected and protein concentrations were determined using Bio-Rad protein assay (Bio-Rad Laboratories). Whole cell lysates (10 μg) were subjected to 10% SDS-polyacrylamide electrophoresis and transferred to nitrocellulose membrane. The membranes were blocked with 5% skim milk in TBS-T (Tris-buffered saline with 0.05% Tween-20) for 1 h at RT and blotted overnight in the presence of monoclonal anti-mouse MAP2 (1:1000, Sigma, cat. no. M1406), Tau (1:1000, Invitrogen, cat. no. AHB0042), TUJI (1:5000, BioLegend, cat. no. MMS-435P), BAX (1:1000, Cell signaling, cat. no. 2772) and rabbit polyclonal total and phosphorylated BCL (1:1000, Cell signaling, antibodies #2827 and 2870). The membranes were washed and incubated for 1 h in RT with either horseradish peroxidase (HRP)-conjugated goat anti-mouse (1:2000) or goat anti-rabbit antibodies (1:2000) (Jackson Lab). The membranes were washed and developed using chemiluminescence detection kit (Millipore, Billerica, MA, USA) on Alpha Innotech FluorChem 8800. β-Actin or Vinculin was used as a loading control. […]"}, "[3]": {"tested_on": "differentiated SH-SY5Y cells", "assay": "Immunocytochemistry of TuJ1 and neuronal morphology", "format": "cell-based, human", "conditions": "5 μM and 10 μM, FIG. 14", "procedure": "FIG. 14 Morphological characterization of CBGA, THC and CBN mediated changes in differentiated SH-SY5Y cells. SH-SY5Y cells were differentiated with RA (10 μM) for 5 days as indicated. (A) Representative confocal photomicrographs showing changes in the cellular distribution of Tuj1 in RA induced differentiated SH-SY5Y cells following treatment with CBGA, THC and CBN. (B) Histogram showing the effect of CBGA, CBN, THC on neurite length."}, "MAP2": {"tested_on": "MAP2", "assay": "Western blot of MAP2 neuritogenesis marker", "format": "cell-based, human", "conditions": "FIG. 15", "procedure": "FIG. 15 CBGA upregulates the expression of MAP2 neuritogenesis marker. […] Changes in prominent intracellular marker of neurite growth, microtubule-associated protein 2 (MAP2) was determined using western blot analysis. Histogram showing densitometric analysis of relative expression of MAP2. β-Actin was used as a loading control.\nas §5, with “2870).” for “2870). The membranes were washed and incubated for 1 h in RT with either horseradish peroxidase (HRP)-conjugated goat anti-mouse (1:2000) or goat anti-rabbit antibodies (1:2000) (Jackson Lab). The membranes were washed and developed using chemiluminescence detection kit (Millipore, Billerica, MA, USA) on Alpha Innotech FluorChem 8800. β-Actin or Vinculin was used as a loading control.”"}},
  "data": [
    {"smiles": "CCCCCc1cc(O)c(C/C=C(\\C)CCC=C(C)C)c(O)c1C(=O)O", "note": "[CBGA, 3-[(2E)-3,7-dimethylocta-2,6-dienyl]-2,4-dihydroxy-6-pentylbenzoic acid]", "values": [
      {"measurement": "effect on survival in primary screen", "setting": "[1]; 1.5 μM, 5 μM and 15 μM, FIG. 1", "result": "pro-survival neuroprotective effect"},
      {"measurement": "Cell Death (%) vs Vehicle Control", "setting": "[1]; 15 μM, pre-screen, FIG. 1", "result": "pro-survival"},
      {"measurement": "cell death under basal conditions", "setting": "[1]; CBGA alone up to 20 μM, FIG. 4", "result": "did not result in cell death"},
      {"measurement": "cell proliferation under basal conditions", "setting": "[1]; CBGA alone up to 20 μM, FIG. 4", "result": "induced dose-dependent cell proliferation"},
      {"measurement": "protection from Aβ1-42 induced insult", "setting": "[2]; 0.15 μM, 0.5 μM, 1.5 μM, 5 μM, 10 μM and 15 μM with Aβ1-42 5 μM, dose-dependent", "result": "protected cells"},
      {"measurement": "effect with Aβ1-42 at the highest concentration", "setting": "[2]; 20 μM with Aβ1-42 5 μM", "result": "resulted in cell death"},
      {"measurement": "BCL2 expression", "setting": "BCL2", "result": "abrogates the downregulation of BCL2"},
      {"measurement": "TuJ1 expression, immunocytochemistry", "setting": "[3]", "result": "promotes upregulation of TuJ1 expression"},
      {"measurement": "MAP2 expression, western blot", "setting": "MAP2; CBGA 10 μM alone", "result": "increased the expression of MAP2"},
      {"measurement": "MAP2 expression, western blot", "setting": "MAP2; CBGA 10 μM with Aβ", "result": "abrogates Aβ mediated downregulation of MAP2 expression"}
    ]}
  ]
}
